Results as given in patent US20060110472A1, “Use of allicin as insect repellent and insecticide in agricultural crops” (priority 2002, published 2006).

Experiments:
[1] = test system: Fruit flies, Drosophila Melanogaster; experiment: Egg laying of fruit flies on plates containing allicin (repellent activity); assay type: in vivo
Procedure: Fruit flies, Drosophila Melanogaster, were grown in a plastic container and allowed to lay eggs in laying bottles (6×4 cm) containing allicin (100 μl) in various concentrations (0-12 mM). Allicin was introduced to the egg-laying sites on a ring of Whatman (3 mm) paper placed at the periphery of the egg laying plate which was placed at the bottom of the bottle. A yeast paste (fly food) was applied in the middle of the plate. Female fruit flies (N=100) were introduced into the laying bottle and were allowed to lay eggs for 16 hours. At the end of the 16 hours, the number of eggs was counted in each plate. The total number of eggs laid by the flies was 1440. The repellent effect of allicin on the fruit fly was determined by measuring the number of laid eggs during the continuous exposure of the flies to the various concentrations of allicin. The results are shown in FIG. 1a as a percentage of laid eggs in the presence of each concentration of allicin in comparison with the number of eggs laid by flies in the absence of allicin (first column, left—100%). […] At the end of the 8 hours, the number of eggs was counted in each plate. […] The repellent effect of allicin on the fruit fly was determined by measuring the number of laid eggs in allicin-free plates for 8 hours after the 16-hour exposure of the flies to the various concentrations of allicin. […]

[2] = test system: hatched larvae of fruit fly; experiment: Lethality of hatched larvae on egg-laying plates with allicin; assay type: in vivo, Drosophila Melanogaster; conditions: allicin stock 1-2 mg/ml added to egg-laying plates, about 200 eggs per plate
Procedure: In an additional experiment, lethality of 80-90% of the hatched larvae produced in the second phase of the fly life cycle was caused by addition of allicin (stock 1-2 mg/ml) to egg-laying plates containing about 200 eggs per plate (not shown).

[3] = test system: fruit flies that attack the persimmon trees; experiment: Spraying of persimmon trees with allicin, repellent effect on fruit flies; assay type: in vivo, fruit fly; conditions: trees sprayed with water solution 0.1-0.2 g/l (0.5-1 mM) every second week, 12 weeks, 6 sessions, FIG. 2
Procedure: (§1) Persimmon trees (Oriental persimmon of the type “Fuyu”, 2.5-3 meters tall) in the Hasharon region, Israel, were sprayed with a water solution of allicin (0.1-0.2 g/l, 0.01-0.02% or 0.5-1 mM) every second week, during a 12-week period, for a total of 6 sessions. Spraying with allicin was started 2-3 weeks after persimmon fruit setting, when the fruits reached 1-2 cm in diameter. The spraying was performed in such a way as to wet the leaves and the fruits completely. No other insecticides or other treatments were used in parallel or at any point of the experiment. FIG. 2 is a photograph showing persimmon fruits from trees treated with allicin (left) and from untreated trees (right).

[4] = test system: Persimmon trees (Oriental persimmon of the type "Fuyu"); experiment: Damage to leaves of persimmon trees after spraying with allicin; assay type: in vivo; conditions: water solution 0.1-0.2 g/l, 6 sprayings over 12 weeks
Procedure: as §1

[5] = test system: ants; experiment: Repellent effect of allicin on ants; assay type: in vivo
Procedure: Treatment of the locus of an ant colony with a water solution of allicin (1 mg/ml) prevented the ants from reentering the place for at least 3 days.

SMILES: C=CCS[S+]([O-])CC=C (stereo not shown) [allicin, thio-2-propene-1-sulfinic acid S-allyl ester]
- repellent activity, inhibition of egg laying by the flies (% of eggs laid vs no allicin) ([1]; 0-12 mM allicin (100 μl), 16 hours continuous exposure, FIG. 1a): dose-dependent
- inhibition of capability of the flies to lay eggs on allicin-free plates after exposure ([1]; 8 hours on allicin-free plates after 16 hours exposure to 0-12 mM allicin, FIG. 1b): significant inhibition effect
- lethality of hatched larvae [2]: 80-90%
- repellent effect on fruit flies, appearance of persimmon fruits [3]: repellent effect on fruit flies
- damage to leaves after spraying [4]: no damage
- crossing of a treated line in the floor by ants ([5]; water solution of allicin 1 mg/ml on a line in the floor, even after the solution dried off): prevented the crossing of the line by ants
- time ants were prevented from reentering the treated locus of the colony ([5]; water solution of allicin 1 mg/ml on locus of an ant colony): at least 3 days
